Data set [1] addresses T1, Nonstructural protein 5 (Dengue virus, UniProt V5TFZ2). The data set is described as follows: Inhibition of DENV His-tagged recombinant NS5/RNA-dependent RNA polymerase.
The nature of data set [2]: Cytotoxicity against African green monkey Vero E6 cells assessed as reduction in cell viability measured after 96 hrs by MTT assay. It is filed as toxicity, cell-based. The settings on record: chlorocebus sabaeus, Vero E6 (Vero C1008) cells.
The nature of data set [3]: Inhibition of DENV3 N-terminal 6-His-tagged RNA-dependent RNA polymerase expressed in Escherichia coli BL21. The arrangement: species or system dengue virus type 3.
Data set [4] concerns Huh-7. Kind of data set: Cytotoxicity against human Huh-7 cells assessed as reduction in cell viability measured after 48 hrs by Celltiter-glo assay. It is filed as functional. Background: ATP-based viability assays read luminescence as a measure of living cells.
Data set [5] is described as follows: Inhibition of DENV-4 full length NS5/RNA-dependent RNA polymerase in Huh-7 cells. It is filed as cell-based, dengue virus type 4.
Data set [6] can be described thus: Cytotoxicity against asian tiger mosquito C6/36 cells assessed as reduction in cell viability measured after 24 hrs by MTT assay. It is filed as toxicity, cell-based. The settings on record: aedes albopictus. On the technique in general: Tetrazolium assays rely on reduction of a dye to a coloured formazan, in cell work by metabolically active cells.
Data set [7] has as its target T1, Nonstructural protein 5. The data set is described as follows: Inhibition of DENV C-terminal histidine-tagged NS5/RNA-dependent RNA polymerase.
A further data set concerns PBMC. Kind of data set: Cytotoxicity against human PBMC cells assessed as reduction in cell viability measured after 48 hrs by Cell-titer glo luminescent assay. It is filed as functional.
Data set [8] relates to A549. Kind of data set: Cytotoxicity against human A549 cells assessed as reduction in cell viability measured after 48 hrs by Cell-titer glo luminescent assay. It is filed as functional.
Data set [9] can be described thus: Cytotoxicity against hamster BHK-21 cells assessed as reduction in cell viability measured after 48 hrs by Cell-titer glo luminescent assay. It is filed as toxicity, cell-based, Mesocricetus auratus.
The nature of data set [10]: Inhibition of Dengue virus RNA-dependent RNA polymerase in human Huh-7 cells. It is filed as cell-based.
The test system of data set [11] is Huh-7. The data set is described as follows: Cytotoxicity against human Huh-7 cells assessed as reduction in cell viability measured after 48 hrs by Cell-titer glo luminescent assay. It is filed as functional.
The test system of data set [12] is Huh-7. The data set is described as follows: Cytotoxicity against human Huh-7 cells assessed as reduction in cell viability measured after 48 hrs by MTT assay. It is filed as functional.
A short description of data set [13]: Cytotoxicity against hamster BHK-21 cells assessed as cell growth inhibition measured after 48 hrs by MTT assay. It is filed as toxicity, cell-based, Mesocricetus auratus.
Data set [14] is described as follows: Inhibition of DENV RNA N7 methyltransferase. Details: species or system Dengue virus.
The nature of data set [15]: Cytotoxicity against human HEK293T cells assessed as reduction in cell viability measured after 48 hrs by MTT assay. It is filed as toxicity, cell-based, HEK-293T.
Data set [16] deals with A549. Kind of data set: Cytotoxicity against human A549 cells assessed as reduction in cell viability measured after 48 hrs by MTT assay. It is filed as functional.
Data set [17] has as its target T1, Nonstructural protein 5. Kind of data set: Inhibition of DENV/NS5 RNA-dependent RNA polymerase.
A short description of data set [18]: Cytotoxicity against African green monkey Vero cells assessed as reduction in cell viability measured after 72 hrs by MTT assay. It is filed as toxicity, cell-based. To be noted: chlorocebus sabaeus.
A further data set concerns dengue virus type 2. Kind of data set: Antiviral activity against Dengue virus 2 infected in African green monkey Vero cells assessed as suppression of viral replication. It is filed as functional, organism-based.
Data set [19] is described as follows: Cytotoxicity against monkey LLC-MK2 cells assessed as reduction in cell viability measured after 48 hrs by MTT assay. It is filed as toxicity, cell-based, Macaca mulatta. The settings on record: rhesus monkey.
The target in data set [20] is T1, Nonstructural protein 5. The data set is described as follows: Inhibition of Dengue virus NS5/RNA-dependent RNA polymerase.
Data set [21] deals with Huh-7. The data set is described as follows: Cytotoxicity against human Huh-7 cells assessed as reduction in cell viability measured after 24 hrs by viral-Tox-glo assay. It is filed as functional.
The nature of data set [22]: Inhibition of DENV-2 NS5 polymerase incubated for 1 hr by fluorescence based analysis. Details: species or system dengue virus type 2.
The nature of data set [23]: Cytotoxicity against hamster BHK-21 cells assessed as reduction in cell viability measured after 24 hrs by MTT assay. It is filed as toxicity, cell-based, Mesocricetus auratus.
Data set [24] can be described thus: Inhibition of DENV RNA-dependent RNA polymerase activity. The arrangement: species or system Dengue virus.
Data set [25] can be described thus: Inhibition of DENV-2 full length His-tagged RNA-dependent RNA polymerase expressed in Escherichia coli Rosetta cells BL21 (DE3) cells incubated for 2 hrs. Details: species or system dengue virus type 2.
A short description of data set [26]: Inhibition of West Nile virus recombinant N-terminal NS5-methyltransferase.
Data set [27] is described as follows: Cytotoxicity against hamster BHK-21 cells assessed as reduction in cell viability measured after 42 hrs by MTT assay. It is filed as toxicity, cell-based, Mesocricetus auratus.
Data set [28] is described as follows: Inhibition of DENV-3 RNA-dependent RNA polymerase expressed in Escherichia coli. The arrangement: species or system dengue virus type 3.
The nature of data set [29]: Cytotoxicity against African green monkey Vero cells assessed as reduction in cell viability measured after 3 to 5 days by Cell titer-glo luminescent assay. It is filed as toxicity, cell-based. To be noted: chlorocebus sabaeus, time 3-5 day.
Data set [30] in a line: Inhibition of DENV-4 full length NS5/RNA-dependent RNA polymerase. Details: species or system dengue virus type 4.
Data set [31] is described as follows: Inhibition of Dengue virus 3 nucleoside-2'O-methyltransferase. The arrangement: species or system dengue virus type 3.

Converted amounts (≈) assume the structure as drawn.

T1 sequence (V5TFZ2 whole entry): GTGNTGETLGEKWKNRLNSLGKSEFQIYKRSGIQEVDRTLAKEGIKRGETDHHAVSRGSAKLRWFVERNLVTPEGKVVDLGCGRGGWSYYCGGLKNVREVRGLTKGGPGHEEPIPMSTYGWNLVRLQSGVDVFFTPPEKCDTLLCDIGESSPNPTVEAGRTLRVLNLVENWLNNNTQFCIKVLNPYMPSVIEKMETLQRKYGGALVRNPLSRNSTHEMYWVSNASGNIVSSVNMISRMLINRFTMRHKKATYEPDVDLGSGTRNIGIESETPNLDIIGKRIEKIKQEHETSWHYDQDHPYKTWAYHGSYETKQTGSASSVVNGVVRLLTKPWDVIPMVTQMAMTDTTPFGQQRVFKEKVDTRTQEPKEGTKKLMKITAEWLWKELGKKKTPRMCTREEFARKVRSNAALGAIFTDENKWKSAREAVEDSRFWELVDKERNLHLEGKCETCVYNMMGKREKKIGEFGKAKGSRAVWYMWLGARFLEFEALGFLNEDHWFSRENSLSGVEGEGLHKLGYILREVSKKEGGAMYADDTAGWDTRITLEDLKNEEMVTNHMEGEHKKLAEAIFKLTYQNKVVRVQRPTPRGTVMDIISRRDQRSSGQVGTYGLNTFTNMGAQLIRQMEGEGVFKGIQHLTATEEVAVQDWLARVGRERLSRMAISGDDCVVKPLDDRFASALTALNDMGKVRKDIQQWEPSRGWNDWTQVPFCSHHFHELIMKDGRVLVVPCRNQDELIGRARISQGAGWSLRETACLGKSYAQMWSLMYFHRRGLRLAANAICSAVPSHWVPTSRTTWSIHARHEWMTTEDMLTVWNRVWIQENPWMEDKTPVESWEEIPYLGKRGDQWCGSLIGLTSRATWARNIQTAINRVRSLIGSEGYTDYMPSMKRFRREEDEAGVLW

With `Nc1cc(C(F)(F)F)ccc1NC(=O)Nc1cccc(S(=O)(=O)Nc2ccc(C(=O)O)cc2)c1`, the IC50 at Nonstructural protein 5 [1] worked out at 150 µM.

On to `O=C(N[C@@H](Cc1ccc(O)cc1)C(=O)O)c1cc(-c2ccccc2)c(=O)n2c1sc1ccc(OC3CCCCC3)cc12`, for which, in [2], the CC50 at 96 h is greater than 100 µM. Moreover, the IC50 in [3] came out at 1500 nM.

With `CC1=C(/C=C/C(C)=C/C=C/C(C)=C/C(=O)Nc2ccc(O)cc2)C(C)(C)CCC1` [FENRETINIDE], in the data set with Huh-7 [4], the CC50 was no more than 10 µM. For the same compound, in [5], the IC50 was 5 µM.

For `C=C1CC[C@@H]2[C@]3(C)COC(C)(C)O[C@@H]3CC[C@@]2(C)[C@@H]1C/C=C1/C(=O)OC[C@@H]1Oc1c(Cl)cc(Cl)c2ccc(C)nc12`, in [6], the CC50 at 24 h came to 15.6 µg/mL (≈ 26 µM).

In turn, `O=c1cc(-c2ccc(Oc3c(O)cc4oc(-c5ccc(O)cc5)cc(=O)c4c3O)cc2)oc2cc(O)cc(O)c12` [HINOKIFLAVONE] yielded an IC50 at Nonstructural protein 5 [7] of 260 nM.

Take `C#C[C@@]1(O)[C@H](O)[C@@H](CO)O[C@H]1n1ccc2c(N)ncnc21`: the CC50 in the data set on PBMC, with A549 [8] and in the data set on Huh-7 [11] was greater than 100 µM in each case. Moreover, the CC50 at 48 h in data set [9] is greater than 100 µM. Moreover, the IC50 in [10] was 310 nM.

Turning to `CCC(/C(C)=C/c1cc(OC)c(OC)cc1OC)c1cc(OC)c(OC)cc1OC` (stereo not given), the CC50 in the data set on Huh-7 [12] and with A549 [16] was greater than 80 µM each time. For the same compound, the cytotoxic concentration (CC50) at 48 h in data set [13] and in [15] was greater than 80 µM each time. This compound also had an IC50 in [14] of 4.5 µM.

Regarding `O=c1c(O[C@@H]2O[C@@H](CO)[C@H](O)[C@H]2O)c(-c2ccc(O)c(O)c2)oc2cc(O)cc(O)c12` [AVICULARIN], the IC50 against Nonstructural protein 5 [17] amounted to 1700 nM.

On to `CC(C)(O)[C@@H]1CC[C@](C)([C@H]2[C@@H](O)C[C@@]3(C)[C@@H]4C[C@H](O[C@@H]5O[C@H](CO)[C@@H](O)[C@H](O)[C@H]5O)[C@H]5C(C)(C)[C@@H](O[C@@H]6OC[C@@H](O)[C@H](O)[C@H]6O)CC[C@@]56C[C@@]46CC[C@]23C)O1`, for which, in data set [18], the CC50 at 72 h was greater than 1000 µg/mL. Further, the EC50 in the data set with dengue virus type 2 was found to be 1.56 µg/mL (≈ 1.99 µM).

For `CC(=O)N[C@@H](C(=O)O)C(C)(C)SN=O`, at Nonstructural protein 5 [1], the IC50 is 150 µM. Also, the CC50 at 48 h in [19] was found to be 200 µM.

`CC(C)OC(=O)[C@H](C)N[P@](=O)(OC[C@H]1O[C@@H](n2ccc(=O)[nH]c2=O)[C@](C)(F)[C@@H]1O)Oc1ccccc1` [SOFOSBUVIR]: the IC50 at Nonstructural protein 5 [20] came to 14.7 µM. Moreover, in the data set on Huh-7 [21], the CC50 is greater than 100 µM.

`Nc1cc(C(F)(F)F)ccc1NC(=O)Nc1ccc(S(=O)(=O)Nc2ccc(C(=O)O)cc2)cc1`: the IC50 on Nonstructural protein 5 [1] is 150 µM.

In data set [22], `COc1cc(C)c(C(=O)NS(=O)(=O)c2cccc3cccnc23)cc1-c1ccc(C#CCO)s1` came in with an IC50 of 1900 nM.

As to `Cc1ccc(C2N(c3ccccc3)CC3=C(CC(C)(C)CC3=O)N2c2ccccc2)cc1` (stereo not given), the CC50 at 24 h in [23] was found to be 10 µM.

The compound `C#C[C@@]1(O)[C@H](OC(=O)C(C)C)[C@@H](COC(=O)C(C)C)O[C@H]1n1cc(C(N)=O)c2c(N)ncnc21` gave an IC50 in data set [24] of 100 nM.

For `C[C@@H]1O[C@@H](OC[C@H]2O[C@@H](Oc3c(-c4ccc(O)c(O)c4)oc4cc(O)cc(O)c4c3=O)[C@H](O)[C@@H](O)[C@@H]2O)[C@H](O)[C@H](O)[C@H]1O` [RUTIN], the IC50 at Nonstructural protein 5 [17] stood at 2100 nM.

For `CC(C)(O)[C@H]1CC[C@@](C)([C@H]2[C@@H](O)C[C@]3(C)[C@H]4C[C@@H](O)[C@H]5C(C)(C)[C@H](O[C@H]6OC[C@H](O)[C@@H](O)[C@@H]6O[C@H]6O[C@@H](CO)[C@H](O)[C@@H](O)[C@@H]6O)CC[C@]56C[C@]46CC[C@@]23C)O1`, the CC50 at 72 h in data set [18] is greater than 1000 µg/mL. Also, the EC50 in the data set with dengue virus type 2 came to 1.56 µg/mL (≈ 1.99 µM).

In turn, `O=c1c(O)c(-c2ccc(O[C@@H]3O[C@H](CO)[C@@H](O)[C@H](O)[C@H]3O)c(O)c2)oc2cc(O)cc(O)c12` [SPIRAEOSIDE] came in with an IC50 at Nonstructural protein 5 [17] of 1900 nM.

In turn, `O=C1[C@@H]2Cc3ccccc3N2[C@@H](c2ccc(O)c(O)c2)N1Nc1ccc([N+](=O)[O-])cc1` yielded an IC50 in data set [25] of 2300 nM.

`O=c1cc(-c2ccc(O)c(-c3c(O)cc4oc(-c5ccc(O)cc5)cc(=O)c4c3O)c2)oc2cc(O)cc(O)c12` [ROBUSTAFLAVONE] returned an IC50 at Nonstructural protein 5 [7] of 330 nM.

`CC1=C(Nc2c(C)cc(O)cc2O)C(=O)C=c2oc3c(c21)C(C)=C(Nc1c(C)cc(O)cc1O)C(=O)C=3`: in data set [26], the IC50 is 5.6 µM. Moreover, in data set [27], the CC50 at 42 h turned out to be 117 µM.

In [25], `O=C1[C@@H]2Cc3ccccc3N2[C@@H](c2ccco2)N1Nc1ccccc1` had an IC50 of 2100 nM.

As to `CC(=O)O[C@H]1[C@H](O[C@H]2CC[C@]34C[C@]35CC[C@]3(C)[C@@H]([C@@]6(C)CC[C@@H](C(C)(C)O)O6)[C@@H](O)C[C@@]3(C)[C@@H]5C[C@H](O[C@@H]3O[C@H](CO)[C@@H](O)[C@H](O)[C@H]3O)[C@H]4C2(C)C)OC[C@@H](O)[C@@H]1O`, in [18], the CC50 at 72 h is greater than 1000 µg/mL. Also, the EC50 in the data set with dengue virus type 2 was 1.56 µg/mL (≈ 1.89 µM).

As for `CC(=O)Oc1ccc2oc(=O)sc2c1`, the IC50 in [28] stood at 287 µM; in data set [30], 445 µM. In [29], the CC50 was 50 µM.

Consider `C=C1CC[C@@H]2[C@](C)(CO)[C@H](O)CC[C@@]2(C)[C@@H]1C/C=C1/C(=O)OC[C@H]1O` [ANDROGRAPHOLIDE], for which, in data set [6], the CC50 at 24 h stood at 15.6 µg/mL (≈ 44.6 µM).

`C[C@@H]1O[C@@H](Oc2c(-c3ccc(O)c(O)c3)oc3cc(O)cc(O)c3c2=O)[C@H](O)[C@H](O)[C@H]1O` [QUERCITRIN] registered an IC50 against Nonstructural protein 5 [17] of 2100 nM.

On to `NC(=O)c1ncn([C@@H]2O[C@H](COP(=O)(O)OP(=O)(O)OP(=O)(O)O)[C@@H](O)[C@H]2O)n1` [RTP], for which the IC50 in [31] came to 100 µM.

What is called IC50 is the concentration that gives 50% inhibition. In general, CC50 refers to the concentration at which the toxic effect on the cells reaches its halfway point. Broadly, the EC50 is the concentration that produces a half-maximal response.

Source of the values: ChEMBL document CHEMBL5370529, “Perspectives on the current antiviral developments towards RNA-dependent RNA polymerase (RdRp) and methyltransferase (MTase) domains of dengue virus non-structural protein 5 (DENV-NS5)” (Eur J Med Chem, 2023).
